This note sets out measurements from patent US20150289512A1, “METHOD FOR PROMOTING PLANT GROWTH” (SUMITOMO CHEMICAL COMPANY, LIMITED, priority 2012, published 2015).

Experiment [1] has as its system Rice (variety: Nipponbare). Kind of experiment: Test Example 2: promotion of root growth by hydroponics of rice, 1 ppm. Format: in vivo. The conditions noted are these: Oryza sativa, hydroponic solution containing the test compound at 1 ppm, average of 4 or 5 individuals, read-out: Relative value of length of seminal root (%-untreated control plot). The procedure, abridged: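 Surface-sterilized Nipponbare seeds germinated 3 days in dark at 28° C in ¼ Hoagland solution with compound at 1 ppm (DMSO 1/10,000; DMSO-only control), then grown hydroponically 3 days at 26° C, 4,000 lux, 16 h day. Seminal root length averaged over 4–5 plants.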

In another experiment the test system is Nicotiana benthamiana. Kind of experiment: Test Example 5: growth promotion under low-temperature stress by hydroponics of Nicotiana benthamiana, 1 ppm. Format: in vivo. To be noted: 1 ppm in medium, low-temperature stress 7 days at 1.5±1.0° C., green leaf area 3 days later, equation (1). A digest of the protocol: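 Seeds were grown in half-strength Murashige–Skoog medium (pH 5.8) containing 1 ppm compound for 7 days at 22 °C, then chilled 7 days at 1.5±1.0 °C and recovered 3 days at 22 °C. Green leaf area was imaged. Relative leaf area = 100×(treated − untreated)/(unstressed untreated − stressed untreated).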

For the compound `COC(=O)c1cc2ccccc2o1` [Compound 1], the change in vivo at 1 ppm in experiment [1] is above 5%. Turning to `COC(=O)c1cc2cc(C(F)(F)F)ccc2o1` [Compound 3, methyl 5-(trifluoromethyl)benzofuran-2-carboxylate], the change in vivo at 1 ppm in experiment [1] was above 5%. With `COC(=O)c1nc2cc(C(F)(F)F)ccc2o1` [Compound 17, methyl 5-trifluoromethylbenzoxazole-2-carboxylate], the relative leaf area (% of untreated control) at 1 ppm in the experiment with Nicotiana benthamiana was at least 5%. The change in vivo at 1 ppm in experiment [1] was above 5%. In the case of `COC(=O)c1oc2ccc(C(F)(F)F)cc2c1C` [Compound 33], the change in vivo at 1 ppm in experiment [1] was above 5%. `Cc1c(C(=O)O)oc2ccc(C(F)(F)F)cc12` [Compound 34] registered a relative leaf area (% of untreated control) at 1 ppm with Nicotiana benthamiana of at least 5%. In addition, the change in vivo at 1 ppm in experiment [1] is above 5%. In the same order, the values of `Cc1c(C(=O)O)oc2ccccc12` [Compound 36] are at least 5% and above 5%. The like results for `COC(=O)c1oc2ccccc2c1C` [Compound 37] were, in that order, at least 5% and above 5%. In the case of `COC(=O)c1oc2ccccc2c1NC(C)=O` [Compound 40], the change in vivo at 1 ppm in experiment [1] was above 5%.

`COC(=O)c1oc2ccccc2c1N(C(C)=O)C(C)=O` [Compound 41]: the change in vivo at 1 ppm in experiment [1] is above 5%.

For the compound `O=C(O)c1cc2c(C(F)(F)F)cccc2o1` [Compound 43], the change in vivo at 1 ppm in experiment [1] is above 5%.

Take `CCOC(=O)c1cc2c(C(F)(F)F)cccc2o1` [Compound 44]: the change in vivo at 1 ppm in experiment [1] was above 5%. Regarding `COC(=O)c1cc2c(C(F)(F)F)cccc2o1` [Compound 45], the change in vivo at 1 ppm in experiment [1] is above 5%. Same read-out and setting: then `COC(=O)c1oc2ccc(C(F)(F)F)cc2c1O` [Compound 50], with above 5%. Turning to `NC(=O)c1cc2cc(C(F)(F)F)ccc2o1` [Compound 51], the relative leaf area (% of untreated control) at 1 ppm in the experiment on Nicotiana benthamiana was at least 5%. In addition, the change in vivo at 1 ppm in experiment [1] was above 5%. For the compound `CNC(=O)c1cc2cc(C(F)(F)F)ccc2o1` [Compound 52], in the experiment on Nicotiana benthamiana, the relative leaf area (% of untreated control) at 1 ppm is at least 5%. Moreover, in experiment [1], the change in vivo at 1 ppm is above 5%. The like results for `O=C(Nc1ccccc1)c1cc2cc(C(F)(F)F)ccc2o1` [Compound 53] were, in that order, at least 5% and above 5%.

Take `O=C(NCc1ccccc1)c1cc2cc(C(F)(F)F)ccc2o1` [Compound 54]: in experiment [1], the change in vivo at 1 ppm is above 5%. Turning to `O=C(Oc1ccccc1)c1cc2cc(C(F)(F)F)ccc2o1` [Compound 55], the relative leaf area (% of untreated control) at 1 ppm in the experiment on Nicotiana benthamiana is at least 5%. Also, the change in vivo at 1 ppm in experiment [1] is above 5%. The like results for `O=C(OCc1ccccc1)c1cc2cc(C(F)(F)F)ccc2o1` [Compound 56] were, in that order, at least 5% and above 5%. For the compound `COC(=O)c1oc2ccc(C(F)(F)F)cc2c1N(C)C` [Compound 62], the change in vivo at 1 ppm in experiment [1] was above 5%. Still for that read-out and setting: the result for `COC(=O)c1oc2ccc(C(F)(F)F)cc2c1NC(C)=O` [Compound 63] reads above 5%. For `COC(=O)c1oc2ccc(C(F)(F)F)cc2c1N(C(C)=O)C(C)=O` [Compound 64], in the experiment on Nicotiana benthamiana, the relative leaf area (% of untreated control) at 1 ppm is at least 5%. For `COC(=O)c1oc2ccc(C(F)(F)F)cc2c1NC(=O)C(F)(F)F` [Compound 65], the relative leaf area (% of untreated control) at 1 ppm with Nicotiana benthamiana was at least 5%. For the same compound, in experiment [1], the change in vivo at 1 ppm is above 5%.

Turning to `COC(=O)c1oc2ccc(C(F)(F)F)cc2c1NS(C)(=O)=O` [Compound 67], in experiment [1], the change in vivo at 1 ppm was above 5%. For the compound `COC(=O)c1oc2ccc(C(F)(F)F)cc2c1NS(=O)(=O)c1ccccc1` [Compound 68], the relative leaf area (% of untreated control) at 1 ppm in the experiment on Nicotiana benthamiana is at least 5%. The change in vivo at 1 ppm in experiment [1] was above 5%. In the same order, the values of `O=C(O)c1oc2ccc(C(F)(F)F)cc2c1C(F)(F)F` [Compound 69] are at least 5% and above 5%. The like results for `COC(=O)c1oc2ccc(C(F)(F)F)cc2c1C(F)(F)F` [Compound 70] were, in that order, at least 5% and above 5%. `O=C(OCc1ccccc1)c1oc2ccc(C(F)(F)F)cc2c1C(F)(F)F` [Compound 73]: the change in vivo at 1 ppm in experiment [1] was above 5%. Compound `NC(=O)c1oc2ccc(C(F)(F)F)cc2c1C(F)(F)F` [Compound 74] gave a relative leaf area (% of untreated control) at 1 ppm in the experiment with Nicotiana benthamiana of at least 5%. The change in vivo at 1 ppm in experiment [1] was above 5%. Regarding `CNC(=O)c1oc2ccc(C(F)(F)F)cc2c1C(F)(F)F` [Compound 75], the change in vivo at 1 ppm in experiment [1] was above 5%. Regarding `O=C(Nc1ccccc1)c1oc2ccc(C(F)(F)F)cc2c1C(F)(F)F` [Compound 76], the change in vivo at 1 ppm in experiment [1] was above 5%. In the experiment with Nicotiana benthamiana, `O=C(NCc1ccccc1)c1oc2ccc(C(F)(F)F)cc2c1C(F)(F)F` [Compound 77] displayed a relative leaf area (% of untreated control) at 1 ppm of at least 5%. For the same compound, the change in vivo at 1 ppm in experiment [1] was above 5%. With `CCOC(=O)c1oc2cccc(O)c2c1C` [Compound 80], the change in vivo at 1 ppm in experiment [1] is above 5%. On to `O=C(O)c1oc2ccccc2c1C(F)(F)F` [Compound 82], for which the relative leaf area (% of untreated control) at 1 ppm in the experiment with Nicotiana benthamiana was at least 5%. Further, the change in vivo at 1 ppm in experiment [1] is above 5%.

For the compound `COC(=O)c1oc2ccccc2c1C(F)(F)F` [Compound 83], the relative leaf area (% of untreated control) at 1 ppm with Nicotiana benthamiana was at least 5%. Besides, the change in vivo at 1 ppm in experiment [1] was above 5%. On to `NC(=O)c1oc2ccccc2c1C(F)(F)F` [Compound 85], for which, in experiment [1], the change in vivo at 1 ppm is above 5%. For the compound `O=C(O)c1nc2c(F)cc(F)cc2s1` [Compound 86], the relative leaf area (% of untreated control) at 1 ppm in the experiment on Nicotiana benthamiana is at least 5%. Also, the change in vivo at 1 ppm in experiment [1] was above 5%.
